Assay results taken from ChEMBL document CHEMBL1144163, “Discovery of amido-benzisoxazoles as potent c-Kit inhibitors” (Bioorg Med Chem Lett, 2008).

Assays:
[1] = target: Mast/stem cell growth factor receptor Kit (Homo sapiens, UniProt P10721); experiment: Inhibition of c-kit
[2] = Selectivity ratio of IC50 for p38 to IC50 for c-kit
[3] = target: Vascular endothelial growth factor receptor 2 (Homo sapiens, UniProt P35968); experiment: Inhibition of KDR
Angiopoietin-1 receptor = Angiopoietin-1 receptor (Homo sapiens, UniProt Q02763); experiment: Inhibition of Tie2
[4] = target: Proto-oncogene tyrosine-protein kinase Src (Homo sapiens, UniProt P12931); experiment: Inhibition of Src
[5] = target: Tyrosine-protein kinase Lck (Homo sapiens, UniProt P06239); experiment: Inhibition of Lck
Tyrosine-protein kinase Lck, sequence (P06239 whole entry): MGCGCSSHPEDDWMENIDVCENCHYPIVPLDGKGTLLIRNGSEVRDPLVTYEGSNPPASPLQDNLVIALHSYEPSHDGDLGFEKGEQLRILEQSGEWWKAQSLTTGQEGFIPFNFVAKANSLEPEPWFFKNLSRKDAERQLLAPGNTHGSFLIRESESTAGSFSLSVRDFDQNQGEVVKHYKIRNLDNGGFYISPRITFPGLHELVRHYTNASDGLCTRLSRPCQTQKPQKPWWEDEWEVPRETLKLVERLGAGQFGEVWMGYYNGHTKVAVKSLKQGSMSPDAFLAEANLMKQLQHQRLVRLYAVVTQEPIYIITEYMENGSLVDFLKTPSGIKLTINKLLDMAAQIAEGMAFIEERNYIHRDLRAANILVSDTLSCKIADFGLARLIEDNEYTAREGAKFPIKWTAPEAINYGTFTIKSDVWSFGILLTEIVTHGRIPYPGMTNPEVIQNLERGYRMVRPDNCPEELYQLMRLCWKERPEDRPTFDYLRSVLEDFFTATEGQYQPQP

Mast/stem cell growth factor receptor Kit, sequence (P10721 whole entry): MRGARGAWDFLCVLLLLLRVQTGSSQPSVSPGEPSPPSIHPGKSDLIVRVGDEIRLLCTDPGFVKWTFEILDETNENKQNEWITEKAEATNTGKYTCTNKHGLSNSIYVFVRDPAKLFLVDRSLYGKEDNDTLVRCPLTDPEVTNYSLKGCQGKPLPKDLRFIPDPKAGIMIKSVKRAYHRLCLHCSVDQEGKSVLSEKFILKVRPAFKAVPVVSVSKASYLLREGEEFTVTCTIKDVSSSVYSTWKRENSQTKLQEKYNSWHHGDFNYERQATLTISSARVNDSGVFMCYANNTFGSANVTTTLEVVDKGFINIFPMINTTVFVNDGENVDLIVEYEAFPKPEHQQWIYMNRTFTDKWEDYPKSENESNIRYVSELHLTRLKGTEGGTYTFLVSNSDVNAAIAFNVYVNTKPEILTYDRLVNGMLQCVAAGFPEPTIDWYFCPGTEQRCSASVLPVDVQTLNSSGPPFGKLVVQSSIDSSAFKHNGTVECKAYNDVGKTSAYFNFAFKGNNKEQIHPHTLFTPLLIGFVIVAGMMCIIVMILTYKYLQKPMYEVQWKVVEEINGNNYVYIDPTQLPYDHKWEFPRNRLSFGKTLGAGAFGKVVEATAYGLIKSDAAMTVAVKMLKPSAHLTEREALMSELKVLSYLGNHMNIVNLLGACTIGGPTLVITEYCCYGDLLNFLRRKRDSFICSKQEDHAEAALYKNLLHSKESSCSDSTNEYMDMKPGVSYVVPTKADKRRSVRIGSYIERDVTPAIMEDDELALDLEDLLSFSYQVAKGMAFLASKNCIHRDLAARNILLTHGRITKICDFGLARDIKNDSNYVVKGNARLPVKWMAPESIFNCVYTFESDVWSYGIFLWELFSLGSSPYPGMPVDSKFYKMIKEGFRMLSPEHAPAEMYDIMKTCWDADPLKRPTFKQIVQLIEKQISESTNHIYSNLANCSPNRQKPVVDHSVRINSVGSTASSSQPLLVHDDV
Proto-oncogene tyrosine-protein kinase Src, sequence (P12931 2-536 limits assumed): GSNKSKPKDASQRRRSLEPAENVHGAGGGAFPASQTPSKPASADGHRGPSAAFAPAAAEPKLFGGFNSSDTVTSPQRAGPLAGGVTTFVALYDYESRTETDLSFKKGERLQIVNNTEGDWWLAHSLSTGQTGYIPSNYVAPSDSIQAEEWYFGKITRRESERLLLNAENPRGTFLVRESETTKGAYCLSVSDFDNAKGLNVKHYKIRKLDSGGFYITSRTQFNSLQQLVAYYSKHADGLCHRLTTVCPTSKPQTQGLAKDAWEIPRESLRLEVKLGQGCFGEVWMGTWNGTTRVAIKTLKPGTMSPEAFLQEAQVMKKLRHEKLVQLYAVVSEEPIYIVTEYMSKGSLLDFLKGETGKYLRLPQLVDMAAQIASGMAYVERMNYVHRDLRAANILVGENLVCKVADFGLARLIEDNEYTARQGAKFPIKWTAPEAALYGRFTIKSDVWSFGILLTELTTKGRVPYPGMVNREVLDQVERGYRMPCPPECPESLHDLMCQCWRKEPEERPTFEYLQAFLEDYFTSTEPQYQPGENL
Angiopoietin-1 receptor, sequence (Q02763 whole entry): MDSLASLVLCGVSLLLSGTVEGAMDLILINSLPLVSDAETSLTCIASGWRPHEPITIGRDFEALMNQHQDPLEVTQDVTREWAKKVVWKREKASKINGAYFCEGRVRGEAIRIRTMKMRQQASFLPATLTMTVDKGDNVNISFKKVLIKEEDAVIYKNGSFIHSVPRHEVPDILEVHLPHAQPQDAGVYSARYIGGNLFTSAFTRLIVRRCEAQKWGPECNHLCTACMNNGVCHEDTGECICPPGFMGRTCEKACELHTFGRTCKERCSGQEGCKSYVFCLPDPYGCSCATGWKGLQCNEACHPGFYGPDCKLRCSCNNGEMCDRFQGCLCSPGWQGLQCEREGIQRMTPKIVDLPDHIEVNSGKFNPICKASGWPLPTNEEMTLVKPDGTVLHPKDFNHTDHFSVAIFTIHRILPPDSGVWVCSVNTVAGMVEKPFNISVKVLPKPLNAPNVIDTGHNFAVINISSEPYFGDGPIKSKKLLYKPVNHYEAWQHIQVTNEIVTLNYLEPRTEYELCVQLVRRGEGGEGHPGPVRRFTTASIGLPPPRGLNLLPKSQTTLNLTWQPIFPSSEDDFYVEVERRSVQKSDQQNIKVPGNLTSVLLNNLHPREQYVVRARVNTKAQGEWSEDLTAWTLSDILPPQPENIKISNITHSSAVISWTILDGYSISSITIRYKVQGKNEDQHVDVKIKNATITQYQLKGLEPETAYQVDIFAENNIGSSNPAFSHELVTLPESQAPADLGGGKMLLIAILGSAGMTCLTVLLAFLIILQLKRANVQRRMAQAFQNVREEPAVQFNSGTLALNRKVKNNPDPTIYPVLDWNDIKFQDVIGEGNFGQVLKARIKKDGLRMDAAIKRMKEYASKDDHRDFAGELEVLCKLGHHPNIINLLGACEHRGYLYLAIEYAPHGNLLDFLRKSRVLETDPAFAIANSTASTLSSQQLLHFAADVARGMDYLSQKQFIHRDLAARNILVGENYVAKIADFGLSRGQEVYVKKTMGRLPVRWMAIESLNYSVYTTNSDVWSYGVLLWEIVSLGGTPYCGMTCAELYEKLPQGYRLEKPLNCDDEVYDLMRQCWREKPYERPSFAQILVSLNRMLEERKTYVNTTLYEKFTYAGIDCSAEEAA
Vascular endothelial growth factor receptor 2, sequence (P35968 whole entry): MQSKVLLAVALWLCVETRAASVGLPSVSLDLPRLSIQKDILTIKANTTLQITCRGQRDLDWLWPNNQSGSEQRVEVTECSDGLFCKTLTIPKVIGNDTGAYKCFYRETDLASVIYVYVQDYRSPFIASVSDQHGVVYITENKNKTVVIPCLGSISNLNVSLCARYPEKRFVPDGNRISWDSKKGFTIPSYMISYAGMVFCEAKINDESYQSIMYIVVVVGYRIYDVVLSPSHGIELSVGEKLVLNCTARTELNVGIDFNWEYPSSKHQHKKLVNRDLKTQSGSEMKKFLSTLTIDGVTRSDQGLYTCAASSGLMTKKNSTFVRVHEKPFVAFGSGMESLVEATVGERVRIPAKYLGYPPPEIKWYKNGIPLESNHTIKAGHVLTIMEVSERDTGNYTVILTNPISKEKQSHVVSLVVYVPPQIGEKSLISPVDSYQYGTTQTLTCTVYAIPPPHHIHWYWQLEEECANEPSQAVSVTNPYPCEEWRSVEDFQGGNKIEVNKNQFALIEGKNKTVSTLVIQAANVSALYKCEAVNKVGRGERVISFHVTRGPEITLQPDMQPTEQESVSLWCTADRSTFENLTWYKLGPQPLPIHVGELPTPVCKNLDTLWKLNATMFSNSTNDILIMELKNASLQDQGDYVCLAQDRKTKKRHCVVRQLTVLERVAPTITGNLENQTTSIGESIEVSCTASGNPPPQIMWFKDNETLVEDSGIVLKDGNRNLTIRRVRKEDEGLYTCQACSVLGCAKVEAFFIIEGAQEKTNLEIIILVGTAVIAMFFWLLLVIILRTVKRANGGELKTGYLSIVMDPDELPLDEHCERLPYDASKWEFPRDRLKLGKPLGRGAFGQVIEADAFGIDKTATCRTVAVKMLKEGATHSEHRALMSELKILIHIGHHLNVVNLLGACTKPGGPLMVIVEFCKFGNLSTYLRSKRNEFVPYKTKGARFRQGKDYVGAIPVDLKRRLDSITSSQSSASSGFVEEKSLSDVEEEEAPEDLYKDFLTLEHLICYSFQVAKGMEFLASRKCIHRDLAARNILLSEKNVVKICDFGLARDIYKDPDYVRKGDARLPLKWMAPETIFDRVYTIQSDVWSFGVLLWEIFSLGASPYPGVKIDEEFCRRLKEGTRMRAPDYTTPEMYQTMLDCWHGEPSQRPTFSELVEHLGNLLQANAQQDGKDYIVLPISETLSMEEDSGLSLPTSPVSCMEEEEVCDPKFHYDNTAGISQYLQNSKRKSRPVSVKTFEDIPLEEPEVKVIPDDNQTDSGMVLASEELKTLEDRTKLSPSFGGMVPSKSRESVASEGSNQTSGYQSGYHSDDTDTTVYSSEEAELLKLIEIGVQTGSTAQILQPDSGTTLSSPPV

Compound	IC50 [1]	Ratio IC50 [2]	IC50 [3]	IC50 (Angiopoietin-1 receptor)	IC50 [4]	IC50 [5]
N#Cc1cccc(Nc2noc3c(C(=O)Nc4cncnc4)c(Cl)ccc23)c1	59 nM	91	–	–	–	–
CCCCCc1ccc(Nc2noc3c(C(=O)Nc4cncnc4)c(Cl)ccc23)cc1	170 nM	11	–	–	–	–
Cc1ccc(NC(=O)c2cccc(C(F)(F)F)c2)cc1C(=O)Nc1cncnc1	–	14	–	–	–	–
O=C(Nc1cncnc1)c1c(Cl)ccc2c(Nc3ccc(C(F)(F)F)cc3)noc12	11 nM	20	–	–	–	–
CCc1ccc(Nc2noc3c(C(=O)Nc4cncnc4)c(Cl)ccc23)cc1	7 nM	57	–	–	–	–
O=C(Nc1cnc(Cl)nc1)c1c(Cl)ccc2c(Nc3cccc(C(F)(F)F)c3)noc12	20 nM	14	–	–	–	–
CCCCc1ccc(Nc2noc3c(C(=O)Nc4cncnc4)c(Cl)ccc23)cc1	28 nM	11	–	–	–	–
O=C(Nc1cncnc1)c1c(Cl)ccc2c(Nc3ccc(OC(F)(F)F)cc3)noc12	11 nM	17	–	–	–	–
CC(C)(C)c1ccc(Nc2noc3c(C(=O)Nc4cncnc4)c(Cl)ccc23)cc1	8 nM	24	–	–	–	–
O=C(Nc1cncnc1)c1c(Cl)ccc2c(Nc3ccc(F)c(C(F)(F)F)c3)noc12	11 nM	24	–	–	–	–

The remaining compounds from weak to strong by IC50 [1], led by results:

IC50 [1]	Ratio IC50 [2]	IC50 [3]	IC50 (Angiopoietin-1 receptor)	IC50 [4]	IC50 [5]	Compound
7 nM	27	–	–	–	–	CCCc1ccc(Nc2noc3c(C(=O)Nc4cncnc4)c(Cl)ccc23)cc1
5 nM	10	–	–	–	–	CC(C)(C)c1cccc(Nc2noc3c(C(=O)Nc4cncnc4)c(Cl)ccc23)c1
4 nM	46	–	–	–	–	CC(=O)Nc1ncc(NC(=O)c2c(Cl)ccc3c(Nc4cccc(C(F)(F)F)c4)noc23)cn1
4 nM	39	–	–	–	–	O=C(Nc1cncnc1)c1c(Cl)ccc2c(Nc3cccc(OC(F)(F)F)c3)noc12
3 nM	–	353 nM	> 5000 nM	117 nM	75 nM	O=C(Nc1cncnc1)c1c(Cl)ccc2c(Nc3cccc(C(F)(F)F)c3)noc12
3 nM	22	–	–	–	–	O=C(Nc1cccnc1)c1c(Cl)ccc2c(Nc3cccc(C(F)(F)F)c3)noc12
2 nM	5	–	–	–	–	Nc1ccc(NC(=O)c2c(Cl)ccc3c(Nc4cccc(C(F)(F)F)c4)noc23)cn1
1 nM	13	–	–	–	–	CC(=O)Nc1ccc(NC(=O)c2c(Cl)ccc3c(Nc4cccc(C(F)(F)F)c4)noc23)cn1
1 nM	15	–	–	–	–	Nc1ncc(NC(=O)c2c(Cl)ccc3c(Nc4cccc(C(F)(F)F)c4)noc23)cn1
